One assay concerns the target FGFR1 kinase (Homo sapiens (Human), UniProt P11362). Put plainly: FGFR1 kinase assay. The assay is classed as biochemical. As for the experimental part: Inhibition of FGFR1 kinase activity by compounds disclosed herein was quantified by measuring the amount of [^33P] incorporated into the substrate in the presence of a test compound. Briefly, a reaction mixture of 25 μL final volume containing 1 ng of FGFR1 kinase (FGFR1 kinase domain alone, Millipore), 5 μg of the substrate [poly(Glu-Tyr), Sigma], kinase reaction buffer (14 mM MOPS pH 7.0, 0.2 mM EDTA, 0.5% glycerol, 0.001% Brij-35, 0.01% β-mercaptoethanol, 0.1 mg/ml BSA, 100 μM ATP, 0.1 μCi per well [^33P]-γ-ATP (2,500-3,000 Ci/mmol)), and a test compound (100 nM, diluted with 4% DMSO) or DMSO (as the control) was incubated at 30° C. for 60 minutes. The reaction was stopped by adding 5 μL of 3% phosphoric acid solution. The resultant reaction solution was then harvested onto a filter plate (UniFilter-96 GF/B, PerkinElmer), washed 20 times for 5 min with d.d. H2O, and followed by the addition of 30 μL of MicroScint™-20 Cocktail (PerkinElmer). The radioactivity retained on the filter membrane was measured by TopCount™ scintillation detector (PerkinElmer). The results were analyzed by using linear regression software (GraphPad Prism™ 4; GraphPad Software Inc.). IC50 value is defined as the concentration of the test compound which achieves a half-maximal inhibition of the kinase activity.

In another assay the test system is COLO205. Put plainly: Anti-proliferative activity, CellTiter-96 assay, COLO205. The assay is classed as cell-based. Conditions: Homo sapiens, COLO 205, COLO205 cells, 72 hours incubation. An outline of the steps: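 Cells in DMEM with 10% FCS at 37° C., 5% CO2, plated at 2000 cells/well for 24 h, then exposed to graded compound concentrations for 72 h. CellTiter-96 Aqueous One reagent added for 4.0 h; viability read as absorbance at 490 nm.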

Another assay addresses EGFR kinase (Homo sapiens (Human), UniProt P00533). Put plainly: EGFR kinase assay. In kind it is biochemical. As for the experimental part: Inhibition of EGFR kinase activity by compounds disclosed herein is quantified by measuring the amount of [^33P] incorporated into the substrate in the presence of a test compound. Briefly, a reaction mixture of 25 μL final volume containing 25 ng of EGFR kinase (EGFR kinase domain alone, Millipore), 3 μg of the substrate [poly(Glu-Tyr), Sigma], kinase reaction buffer (10 mM MOPS pH 7.0, 0.3 mM EDTA, 0.5% glycerol, 0.001% Brij-35, 10 mM MnCl2, 0.1 mg/ml BSA, 100 μM ATP, 0.1 μCi per well [^33P]-γ-ATP (2,500-3,000 Ci/mmol)), and a test compound (100 nM, diluted with 4% DMSO) or DMSO (as the control) was incubated at 30° C. for 30 minutes. The reaction was stopped by adding 5 μL of 3% phosphoric acid solution. The resultant reaction solution was then harvested onto a filter plate (UniFilter-96 GF/B, PerkinElmer), washed 20 times for 5 min with d.d. H2O, and followed by the addition of 30 μL of MicroScint™-20 Cocktail (PerkinElmer). The radioactivity retained on the filter membrane was measured by TopCount™ scintillation detector (PerkinElmer). The results were analyzed by using linear regression software (GraphPad Prism™ 4; GraphPad Software Inc.). IC50 value is defined as the concentration of the test compound which achieves a half-maximal inhibition of the kinase activity.

In a further assay the target is FLT3 kinase (Homo sapiens (Human), UniProt P36888). Put plainly: FLT3 kinase assay. In kind it is biochemical. The method, then:
Inhibition of FLT3 kinase activity by compounds disclosed herein was quantified by measuring the amount of [^33P] incorporated into the substrate in the presence of a test compound. Briefly, a reaction mixture of 25 μL final volume containing 5 ng of Flt3 kinase (obtained by purifying recombinant N-terminal 6×His-tagged Flt3 kinase domain construct expressed from baculovirus), 5 μg of the substrate (Poly(Glu-Tyr, 4:1, Sigma)), kinase reaction buffer (20 mM MOPS pH 7.0, 1 mM EDTA, 5% glycerol, 0.01% Brij-35, 0.1% β-mercaptoethanol, 1 mg/mL BSA, 100 μM ATP, 0.1 μCi per well [^33P]-γ-ATP (2,500-3,000 Ci/mmol)), and a test compound (100 nM, diluted with 4% DMSO) or DMSO (as the control) was incubated at 30° C. for 30 minutes. The reaction was stopped by adding 5 μL of 3% phosphoric acid solution. The resultant reaction solution was then harvested onto a filter plate (UniFilter-96 GF/B, PerkinElmer), washed 20 times for 5 min with d.d. H2O, and followed by the addition of 30 μL of MicroScint™-20 Cocktail (PerkinElmer). The plate was then sealed and counted using a TopCount™ scintillation detector (PerkinElmer). IC50 value is defined as the concentration of the test compound which achieves a half-maximal inhibition of the kinase activity.

The structures appear in SMILES notation.

Usually IC50 stands for the point on the concentration scale where inhibition reaches its midpoint.

Chain of FLT3 kinase (P36888 610-943): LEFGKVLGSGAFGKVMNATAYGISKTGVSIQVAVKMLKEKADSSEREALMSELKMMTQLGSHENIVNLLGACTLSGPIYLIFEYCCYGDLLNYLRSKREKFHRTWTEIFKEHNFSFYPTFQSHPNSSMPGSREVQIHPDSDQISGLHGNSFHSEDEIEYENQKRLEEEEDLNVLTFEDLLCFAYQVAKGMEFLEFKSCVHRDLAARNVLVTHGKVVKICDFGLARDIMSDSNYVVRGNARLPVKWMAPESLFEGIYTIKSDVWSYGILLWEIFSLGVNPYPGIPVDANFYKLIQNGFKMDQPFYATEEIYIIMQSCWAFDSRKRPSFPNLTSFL
Chain of FGFR1 kinase (P11362 478-767): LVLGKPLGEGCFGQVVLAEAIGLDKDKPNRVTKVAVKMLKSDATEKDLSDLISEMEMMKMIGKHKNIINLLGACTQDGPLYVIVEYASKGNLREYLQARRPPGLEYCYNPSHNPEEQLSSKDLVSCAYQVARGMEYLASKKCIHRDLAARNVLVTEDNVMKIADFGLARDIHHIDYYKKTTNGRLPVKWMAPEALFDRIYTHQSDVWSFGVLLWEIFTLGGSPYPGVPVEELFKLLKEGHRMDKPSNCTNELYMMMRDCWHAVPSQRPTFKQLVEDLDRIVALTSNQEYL
Chain of EGFR kinase (P00533 712-979): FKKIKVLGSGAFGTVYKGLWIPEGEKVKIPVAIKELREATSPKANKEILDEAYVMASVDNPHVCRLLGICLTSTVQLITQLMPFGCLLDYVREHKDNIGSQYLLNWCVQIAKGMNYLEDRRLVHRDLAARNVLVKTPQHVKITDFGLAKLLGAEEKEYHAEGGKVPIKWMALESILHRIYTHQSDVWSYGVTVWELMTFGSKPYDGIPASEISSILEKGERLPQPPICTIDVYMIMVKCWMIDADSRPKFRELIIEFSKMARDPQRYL

In the case of `COc1cc(-c2ccc3ncnc(Nc4cccc(O)c4)c3c2)ccc1O` [Compound 8, 4-(4-(3-hydroxyphenylamino)quinazolin-6-yl)-2-methoxyphenol], the IC50 against FGFR1 kinase came out at 413 nM; in the assay on COLO205, 6700 ± 100 nM; on EGFR kinase, 18.7 nM; at FLT3 kinase, 271 nM.
For `COc1cc(-c2ccc3ncnc(Nc4cc(O)ccc4F)c3c2)ccc1O` [Compound 58, 4-(4-(2-fluoro-5-hydroxyphenylamino)quinazolin-6-yl)-2-methoxyphenol], in that order: 131 nM, 3200 ± 300 nM, 14.9 nM and 137 nM.

For the origin of these results see patent US8785459B2, “Quinazoline compounds as kinase inhibitors” (Development Center for Biotechnology, priority 2011, dated 2014).
